Assay results taken from US10905676B2, “Angiotensin II receptor antagonist for the prevention or treatment of systemic diseases in cats” (priority 2017, dated 2021).

Tests used:
[1] = tested on: cats with systemic hypertension; assay: U.S. study of safety and effectiveness in cats with systemic hypertension (Example 4); type: in vivo
From the text: Of the remaining 288 cats used for the safety summary, 192 received IVP and 96 received ICP from a total of 33 sites within the United States (US) and Canada. […] Overall, both treatment groups were evenly distributed with regard to demographics and baseline characteristics including age, body weight, mSBP, retinal/fundic changes, and laboratory values. The median age of cats enrolled in this study was 14.2 years. Upon enrollment into the study, cats were orally administered telmisartan by their owners, where the owners were given the option of dosing the treatments around or on the food or via syringe. A dosing syringe was provided with demarcations in 0.1 mL increments as well as a dose and volume to be given, rounded to the nearest 0.1 mL (where the calculation was based on kg of body weight for each cat at Visit 1, and the dose was recalculated at each subsequent visit using the current body weight). […] Following Visit 2 (approximately Day 14), the dose was decreased to the 2 mg/kg once daily (SID) maintenance dose. The reduction and maintenance dosage regimen for the cats in the study is set forth in Table 6: The maintenance dose for a cat in the study could be further down-titrated if the mSBP of the cat remained below 120 mmHg from Visit 2 (at about day 14) and onward. […] At Visit 2 and at Unscheduled Visits, blood and urine samples were collected at the discretion of the Investigator. Changes in all parameters were summarized by treatment group as well as by subpopulation, if appropriate. The primary variable for statistical analysis was mSBP reduction from baseline observed at Visit 2. […] Telmisartan was successful in fulfilling both primary criteria for efficacy in cats as described below.

[2] = tested on: cats with moderate to severe systemic hypertension; assay: European study of efficacy and safety in cats with systemic hypertension (Example 6); type: in vivo
Experimental: A European study was conducted to investigate the efficacy and safety of telmisartan oral solution for the treatment of systemic hypertension in cats. The first part or phase of the study (Day 1 to Day 28) occurred over a 28-day placebo-controlled, double-blinded treatment period (efficacy phase of the study). […] The target population for this study was domestic client-owned cats with moderate to severe systemic hypertension (cats having a mSBP of at least about 160 mmHg). […] A schematic overview of the study and the two phases of treatment is depicted in FIG. 3. There was a similar pre-treatment mSBP observed for both treatment groups (about 177-179 mmHg). Cats diagnosed with moderate to severe systemic hypertension in compliance with the “ACVIM consensus statement: Guidelines for the Identification, Evaluation, and Management of Systemic Hypertension in Dogs and Cats” (Brown et al. Guidelines for the identification, evaluation, and management of systemic hypertension in dogs and cats. ACVIM Consensus Statement. J Vet Intern Med 2007; 21: 542-558) at two separate Screening Visits within 14 days of the start of treatment were eligible for the study. The etiology of the hypertension was classified as due to chronic kidney disease (CKD), due to hyperthyroidism, due to both CKD and hyperthyroidism or as idiopathic hypertension. Cats were not allowed any substances which are known to affect blood pressure from 14 days prior to the start of treatment. […] A 5 mL dosing syringe (demarcated in 0.25 mL increments) was used for the first phase and a 2 mL dosing syringe (demarcated in 0.1 mL increments, to achieve down titrations as necessary) to perform dosing either directly into the mouth of the cat or with a very small amount of food. For the first (efficacy) phase of the study, all recruited cats were examined on two visits at Day 14 and Day 28. Examinations included measurement of mSBP, a complete physical examination, fundoscopic examination, an assessment of quality of life, and abbreviated clinical pathology (hematology and biochemistry). […] These cats were further examined, as above, for visits at Days 56, 84 and 120. During the second (extended) phase of the study, it was possible to decrease or down titrate the dose for certain cats as described herein.

[3] = Pharmacokinetics and absolute bioavailability after single oral or intravenous administration (Example 1)
Experimental: Four clinically healthy male and female domestic short hair cats (HsdCpb: CADS) with a body weight range of 2.6-4.2 kg were used in this study. The animals were randomly allocated to 2 groups, 2 animals per group.
Blood samples were drawn at 0 h (i.e. prior to treatment), 5 (after i. v. injection only), 15, 30 and 60 min as well as 2, 4, 8, 24, 72 and 96 h after each treatment. Clinical observations were also conducted at these time points. Plasma samples were sent to the analytical laboratory and analysed there using a validated method. The plasma levels measured in each animal were subjected to various pharmacokinetic calculations.

[4] = cats, single i.v. 1 mg/kg, mean, 1 mg/kg
[5] = cats, single oral 1 mg/kg, mean, 1 mg/kg

CCCc1nc2c(C)cc(-c3nc4ccccc4n3C)cc2n1Cc1ccc(-c2ccccc2C(=O)O)cc1 [telmisartan, 4′-[2-n-propyl-4-methyl-6-(1-methylbenzimidazol-2-yl)-benzimidazol-1-ylmethyl]-biphenyl-2-carboxylic acid]
LSM mSBP change from baseline to Visit 2 ([1]; 1.5 mg/kg BID oral, about Day 14, N 141): −23.3 ΔmmHg | arithmetic mean decrease of mSBP, baseline minus Visit 3 ([1]; Visit 3 (about Day 28), 1.5 mg/kg BID then 2 mg/kg SID): 23.9 mmHg | mean decrease of mSBP ([1]; baseline to Visit 2 (about Day 14)): 23.3 mmHg | Serious Adverse Events (SAEs) attributable ([1]; hypertensive cats, 28 days): very few | percentage of cats with retinal lesions scoring "better" ([1]; retinal photographs vs baseline): 11.5% | mSBP change on Day 28 ([2]; 2.0 mg/kg once daily oral, n = 165): −24.629 ΔmmHg | mSBP change on Day 14 ([2]; 2.0 mg/kg once daily oral, n = 174): −19.219 ΔmmHg | Mean SABP reduction compared to baseline at respective visit ([2]; SABP at baseline between 160-179 mmHg (171.9), Day 14, n = 98): −16.7 ΔmmHg | Mean SABP reduction compared to baseline at respective visit ([2]; SABP at baseline between 160-179 mmHg, Day 28, n = 94): −22.9 ΔmmHg | Mean SABP reduction compared to baseline at respective visit ([2]; SABP at baseline between 160-179 mmHg, Day 56, n = 87): −24.7 ΔmmHg | Mean SABP reduction compared to baseline at respective visit ([2]; SABP at baseline between 160-179 mmHg, Day 84, n = 85): −23.2 ΔmmHg | Mean SABP reduction compared to baseline at respective visit ([2]; SABP at baseline between 160-179 mmHg, Day 120, n = 81): −23.5 ΔmmHg | Mean SABP reduction compared to baseline at respective visit ([2]; SABP at baseline between 180-200 mmHg (188.4), Day 14, n = 76): −22.3 ΔmmHg | Mean SABP reduction compared to baseline at respective visit ([2]; SABP at baseline between 180-200 mmHg, Day 28, n = 71): −26.6 ΔmmHg | Mean SABP reduction compared to baseline at respective visit ([2]; SABP at baseline between 180-200 mmHg, Day 56, n = 65): −29.6 ΔmmHg | Mean SABP reduction compared to baseline at respective visit ([2]; SABP at baseline between 180-200 mmHg, Day 84, n = 63): −30.7 ΔmmHg | Mean SABP reduction compared to baseline at respective visit ([2]; SABP at baseline between 180-200 mmHg, Day 120, n = 63): −32.9 ΔmmHg | % of cats with Systolic Blood Pressure < 160 mmHg ([2]; Visit Day 14): 46.6% | N of cats with Systolic Blood Pressure < 160 mmHg ([2]; Visit Day 14): 81 | % of cats with Systolic Blood Pressure < 160 mmHg ([2]; Visit Day 56): 70.9% | N of cats with Systolic Blood Pressure < 160 mmHg ([2]; Visit Day 56): 105 | % of cats with Systolic Blood Pressure < 160 mmHg ([2]; Visit Day 84): 67.8% | N of cats with Systolic Blood Pressure < 160 mmHg ([2]; Visit Day 84): 97 | % of cats with Systolic Blood Pressure < 160 mmHg ([2]; Visit Day 120): 73.1% | N of cats with Systolic Blood Pressure < 160 mmHg ([2]; Visit Day 120): 98 | % of cats with Systolic Blood Pressure < 160 mmHg ([2]; Visit day 28): 62.0% | N of cats with Systolic Blood Pressure < 160 mmHg ([2]; Visit day 28): 101 | cats with an increased appetite ([2]; between day −1 and 28): 11% | reduction in mSBP (mean change in SBP from baseline) ([2]; each visit day, whole study duration of 120 days): greater than 20 mmHg | cats with adverse events ([2]; efficacy phase, 115 adverse events coded for 58 cats): 29.9% | cats in which it was possible to down-titrate the dose to <2 mg/kg ([2]; extended use phase): 21.7% | Mean Systolic Blood Pressure change on Day 120 compared to baseline SBP ([2]; extended use phase, n = 144 cats): −27.62 ΔmmHg | Mean Systolic Blood Pressure change on Day 84 compared to baseline SBP ([2]; extended use phase, n = 148 cats): −26.50 ΔmmHg | Mean Systolic Blood Pressure change on Day 56 compared to baseline SBP ([2]; extended use phase, n = 152 cats): −26.94 ΔmmHg | changes in a physical or clinical pathology parameter ([2]; following 120 days of treatment): no clinically relevant changes | mean body weight, mean heart rate, respiratory rate, and rectal temperature ([2]; following 120 days treatment): no clinically significant change | cats with at least one adverse event ([2]; second (extended use) phase, 62 cats): 32.0% | time until which mean plasma concentrations increased ([3]; after oral administration): 15 to 30 min | plasma concentrations at 24 h ([3]; both routes, orally and intravenously): No quantifiable plasma concentrations | clearance ([3]; both, domestic short hair (HsdCpb: CADS), plasma, iv, 1 mg/kg): 45.5 mL/min/kg | V ([3]; cats, single i.v. 1 mg/kg, mean): 8.856 L/kg | AUC 0 → ∞ [3, 4]: 384.751 ng·h/mL | t½ [3, 4]: 2.252 h | V/f ([3]; cats, single oral 1 mg/kg, mean): 20.453 L/kg | AUC 0 → ∞ [3, 5]: 150.426 ng·h/mL | t max [3, 5]: 0.438 h | t½ [3, 5]: 2.169 h | clinical signs ([3]; entire course of the study): No specific clinical signs | tolerability ([3]; in vivo, 1 mg/kg): well tolerated
